From patent US20260116920A1, “HUMAN TRANSFERRIN RECEPTOR BINDING PEPTIDE” (PEPTIDREAM INC., priority 2021, published 2026)
Starred links: 1 amine or outer side, 2 acyl side, 3 side chain; linkers in the order of their positions; H or OH if unused. Positions of bridges follow the written chain, without caps; N, C: chain ends. Non-standard residues stand in square brackets, D forms with d. Residues, ends and D or L forms follow the SMILES beside them. Groups on a side chain read outwards from the residue. *: point of attachment. Trp(1-CH2COOH) = N[C@@H](Cc1cn(CC(=O)O)c2ccccc12)C(=O)O; Nle(6-morpholino) = N[C@@H](CCCCN1CCOCC1)C(=O)O; Phe(3-COOH) = N[C@@H](Cc1cccc(C(=O)O)c1)C(=O)O; NMePhe(3-Cl) = CN[C@@H](Cc1cccc(Cl)c1)C(=O)O; Piperazinyl(4-CH2COOH) = O=C(O)CN1CCN(*)CC1; 3Pal(6-NH2) = Nc1ccc(C[C@H](N)C(=O)O)cn1; NMeY = CN[C@@H](Cc1ccc(O)cc1)C(=O)O; NH(CH2CH2O)4Me = COCCOCCOCCOCCN*; 4Pal = N[C@@H](Cc1ccncc1)C(=O)O; PEG4 = NCCOCCOCCOCCOCCC(=O)O; Carboxymethyl = O=C(O)C*; CO = O=C([*:1])[*:2]; X4 = COCC(COC)N*

molecular target: T1, human transferrin receptor (hTfR) (Homo sapiens, UniProt P02786); assay: Evaluation of molecular interaction between transferrin receptor (hTfR) and peptide using surface plasmon resonance (SPR); type: binding; settings: surface plasmon resonance, binding to hTfR; KD class symbol; read-out: SPR (KD value)
T1 construct: made in house
T1 sequence (P02786 89-760 limits assumed): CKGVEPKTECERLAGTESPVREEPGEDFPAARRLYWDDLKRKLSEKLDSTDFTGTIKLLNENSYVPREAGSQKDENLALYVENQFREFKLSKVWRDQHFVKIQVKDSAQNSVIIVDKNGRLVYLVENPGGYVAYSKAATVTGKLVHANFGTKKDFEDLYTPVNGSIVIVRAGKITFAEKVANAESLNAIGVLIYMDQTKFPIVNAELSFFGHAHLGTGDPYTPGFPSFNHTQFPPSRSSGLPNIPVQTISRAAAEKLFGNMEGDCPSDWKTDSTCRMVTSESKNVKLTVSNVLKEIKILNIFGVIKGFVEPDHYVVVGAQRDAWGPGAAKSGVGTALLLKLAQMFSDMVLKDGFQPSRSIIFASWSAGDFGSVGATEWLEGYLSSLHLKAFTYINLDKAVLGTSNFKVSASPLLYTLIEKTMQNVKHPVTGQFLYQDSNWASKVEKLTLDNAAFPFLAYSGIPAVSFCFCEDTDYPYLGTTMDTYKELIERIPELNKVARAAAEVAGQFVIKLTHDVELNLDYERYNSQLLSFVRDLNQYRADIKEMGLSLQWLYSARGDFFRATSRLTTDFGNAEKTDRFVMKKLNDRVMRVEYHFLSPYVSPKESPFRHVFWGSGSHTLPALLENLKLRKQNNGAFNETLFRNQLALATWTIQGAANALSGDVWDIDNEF
Method in brief: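 SPR, single-cycle kinetics; hTfR dimer on NTA chip via Ni capture plus EDC/NHS coupling. Analyte peptide 100, 50, 25, 10, 5 nM. Running buffer: 10 mM HEPES pH 8.0, 150 mM NaCl, 0.05% Tween 20, 0.1% BSA, 1.0% DMSO. KD by least-squares fit.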

Q: `CC[C@H](C)[C@@H]1NC(=O)[C@H](Cc2ccc(OCC(=O)O)cc2)NC(=O)[C@H](Cc2ccc(O)cc2)NC(=O)[C@H](CC(N)=O)NC(=O)[C@H](Cc2c[nH]c3ccccc23)NC(=O)[C@H](C(C)C)NC(=O)[C@H](Cc2cccc(Cl)c2)N(C)C(=O)[C@H](C(C)C)NC(=O)[C@H](C)NC(=O)CSC[C@@H](C(=O)NCCOCCOCCOCCOCCC(N)=O)NC(=O)[C@H](Cc2ccc(O)cc2)N(C)C(=O)[C@H](Cc2ccccc2)NC(=O)[C@H](CCCNC(=N)N)NC(=O)[C@H](CCCNC(=N)N)NC(=O)[C@H]([C@@H](C)CC)NC1=O` [compound 109] was tested. Which Kd did it give?
A: < 1 nM

Q: `CC[C@H](C)[C@@H]1NC(=O)[C@H](Cc2ccc(OCC(=O)O)cc2)NC(=O)[C@H](Cc2ccc(O)cc2)NC(=O)[C@H](CC(N)=O)NC(=O)[C@H](Cc2cn(CC(=O)O)c3ccccc23)NC(=O)[C@H](C(C)C)NC(=O)[C@H](Cc2cccc(Cl)c2)N(C)C(=O)[C@H](C(C)C)NC(=O)[C@H](C)NC(=O)CSC[C@@H](C(=O)NCCOCCOCCOCCOCCC(N)=O)NC(=O)[C@H](Cc2ccc(O)cc2)N(C)C(=O)[C@H](Cc2ccccc2)NC(=O)[C@H](CCCNC(=N)N)NC(=O)[C@H](CCC(=O)NCCOCCOCCOCCOC)NC(=O)[C@H]([C@@H](C)CC)NC1=O` [compound 110] was tested. Which Kd did it give?
A: 1 to 100 nM

Q: Which Kd does the source give for `CC[C@H](C)[C@@H]1NC(=O)[C@H](Cc2ccc(OCC(=O)O)cc2)NC(=O)[C@H](Cc2ccc(O)cc2)NC(=O)[C@H](CC(N)=O)NC(=O)[C@H](Cc2cn(CC(=O)O)c3ccccc23)NC(=O)[C@H](C(C)C)NC(=O)[C@H](Cc2cccc(Cl)c2)N(C)C(=O)[C@H](C(C)C)NC(=O)[C@H](C)NC(=O)CSC[C@@H](C(=O)NCCOCCOCCOCCOCCC(N)=O)NC(=O)[C@H](Cc2ccc(O)cc2)N(C)C(=O)[C@H](Cc2ccccc2)NC(=O)[C@H](CCCNC(=N)N)NC(=O)[C@H](CCC(=O)NC(COC)COC)NC(=O)[C@H]([C@@H](C)CC)NC1=O` [compound 111] here?
A: 1 to 100 nM

Q: Which Kd does the source give for `CC[C@H](C)[C@@H]1NC(=O)[C@H](Cc2ccc(OCC(=O)O)cc2)NC(=O)[C@H](Cc2ccc(O)cc2)NC(=O)[C@H](CC(N)=O)NC(=O)[C@H](Cc2c[nH]c3ccccc23)NC(=O)[C@H](C(C)C)NC(=O)[C@H](Cc2cccc(Cl)c2)N(C)C(=O)[C@H](C(C)C)NC(=O)[C@H](C)NC(=O)CSC[C@@H](C(=O)NCCOCCOCCOCCOCCC(N)=O)NC(=O)[C@H](Cc2ccc(O)cc2)N(C)C(=O)[C@H](Cc2ccccc2)NC(=O)[C@H](CCCNC(=N)N)NC(=O)[C@H](CCC(=O)NCCOCCOCCOCCOCCOCCOCCOCCOC)NC(=O)[C@H]([C@@H](C)CC)NC1=O` [compound 112] here?
A: < 1 nM

Q: Which Kd does the source give for `CC[C@H](C)[C@@H]1NC(=O)[C@H](Cc2ccc(OCC(=O)O)cc2)NC(=O)[C@H](Cc2ccc(O)cc2)NC(=O)[C@H](CC(N)=O)NC(=O)[C@H](Cc2c[nH]c3ccccc23)NC(=O)[C@H](C(C)C)NC(=O)[C@H](Cc2cccc(Cl)c2)N(C)C(=O)[C@H](C(C)C)NC(=O)[C@H](C)NC(=O)CSC[C@@H](C(=O)NCCOCCOCCOCCOCCC(N)=O)NC(=O)[C@H](Cc2ccc(O)cc2)N(C)C(=O)[C@H](Cc2ccccc2)NC(=O)[C@H](CCCNC(=N)N)NC(=O)[C@H](CCC(=O)NCCOCCOCCOCCOC)NC(=O)[C@H]([C@@H](C)CC)NC1=O` [compound 113] here?
A: 1 to 100 nM

Q: For `CC[C@H](C)[C@@H]1NC(=O)[C@H](Cc2ccc(OCC(=O)O)cc2)NC(=O)[C@H](Cc2ccc(O)cc2)NC(=O)[C@H](CC(N)=O)NC(=O)[C@H](Cc2c[nH]c3ccccc23)NC(=O)[C@H](C(C)C)NC(=O)[C@H](Cc2cccc(Cl)c2)N(C)C(=O)[C@H](C(C)C)NC(=O)[C@H](C)NC(=O)CSC[C@@H](C(=O)NCCOCCOCCOCCOCCC(N)=O)NC(=O)[C@H](Cc2ccc(O)cc2)N(C)C(=O)[C@H](Cc2cccc(C(=O)O)c2)NC(=O)[C@H](CCCNC(=N)N)NC(=O)[C@H](CCC(=O)NC(COC)COC)NC(=O)[C@H]([C@@H](C)CC)NC1=O` [compound 114] ({CH2CO}-AV[NMePhe(3-Cl)]VWNYY(Carboxymethyl)IIE(X4)R[Phe(3-COOH)][NMeY]C[PEG4]-NH2; thioether N-15), which Kd is on record?
A: < 1 nM

Q: `CC[C@H](C)[C@@H]1NC(=O)[C@H](Cc2ccc(OCC(=O)O)cc2)NC(=O)[C@H](Cc2ccc(O)cc2)NC(=O)[C@H](CC(N)=O)NC(=O)[C@H](Cc2cn(CC(=O)O)c3ccccc23)NC(=O)[C@H](C(C)C)NC(=O)[C@H](Cc2cccc(Cl)c2)N(C)C(=O)[C@H](C(C)C)NC(=O)[C@H](C)NC(=O)CSC[C@@H](C(=O)NCCOCCOCCOCCOCCC(N)=O)NC(=O)[C@H](Cc2ccc(O)cc2)N(C)C(=O)[C@H](Cc2ccccc2)NC(=O)[C@H](CCCCNC(=O)N2CCN(CC(=O)O)CC2)NC(=O)[C@H](CCC(=O)NCCOCCOCCOCCOC)NC(=O)[C@H]([C@@H](C)CC)NC1=O` [compound 115] ({CH2CO}-AV[NMePhe(3-Cl)]V[Trp(1-CH2COOH)]NYY(Carboxymethyl)IIE(NH(CH2CH2O)4Me)K([CO-Piperazinyl(4-CH2COOH)])F[NMeY]C[PEG4]-NH2; thioether N-15) was tested. Which Kd did it give?
A: 1 to 100 nM

Q: With `CC[C@H](C)[C@@H]1NC(=O)[C@H](Cc2ccc(OCC(=O)O)cc2)NC(=O)[C@H](Cc2ccc(O)cc2)NC(=O)[C@H](CC(N)=O)NC(=O)[C@H](Cc2c[nH]c3ccccc23)NC(=O)[C@H](C(C)C)NC(=O)[C@H](Cc2cccc(Cl)c2)N(C)C(=O)[C@H](C(C)C)NC(=O)[C@H](C)NC(=O)CSC[C@@H](C(=O)NCCOCCOCCOCCOCCC(N)=O)NC(=O)[C@H](Cc2ccc(O)cc2)N(C)C(=O)[C@H](Cc2ccccc2)NC(=O)[C@H](CCCCNC(=O)N2CCN(CC(=O)O)CC2)NC(=O)[C@H](CCC(=O)NCCOCCOCCOCCOC)NC(=O)[C@H]([C@@H](C)CC)NC1=O` [compound 116] ({CH2CO}-AV[NMePhe(3-Cl)]VWNYY(Carboxymethyl)IIE(NH(CH2CH2O)4Me)K([CO-Piperazinyl(4-CH2COOH)])F[NMeY]C[PEG4]-NH2; thioether N-15) as the compound, how does the Kd read?
A: 1 to 100 nM

Q: How did the Kd turn out when `CC[C@H](C)[C@@H]1NC(=O)[C@H](Cc2ccc(OCC(=O)O)cc2)NC(=O)[C@H](Cc2ccc(N)nc2)NC(=O)[C@H](CC(N)=O)NC(=O)[C@H](Cc2cn(CC(=O)O)c3ccccc23)NC(=O)[C@H](C(C)C)NC(=O)[C@H](Cc2cccc(Cl)c2)N(C)C(=O)[C@H](C(C)C)NC(=O)[C@H](C)NC(=O)CSC[C@@H](C(=O)NCCOCCOCCOCCOCCC(N)=O)NC(=O)[C@H](Cc2ccc(O)cc2)N(C)C(=O)[C@H](Cc2ccncc2)NC(=O)[C@H](CCCNC(=N)N)NC(=O)[C@H](CCC(=O)NCCOCCOCCOCCOC)NC(=O)[C@H]([C@@H](C)CC)NC1=O` [compound 117] was run?
A: 1 to 100 nM

Q: Which Kd does the source give for `CC[C@H](C)[C@@H]1NC(=O)[C@H](Cc2ccc(OCC(=O)O)cc2)NC(=O)[C@H](Cc2ccc(N)nc2)NC(=O)[C@H](CC(N)=O)NC(=O)[C@H](Cc2c[nH]c3ccccc23)NC(=O)[C@H](C(C)C)NC(=O)[C@H](Cc2cccc(Cl)c2)N(C)C(=O)[C@H](C(C)C)NC(=O)[C@H](C)NC(=O)CSC[C@@H](C(=O)NCCOCCOCCOCCOCCC(N)=O)NC(=O)[C@H](Cc2ccc(O)cc2)N(C)C(=O)[C@H](Cc2ccncc2)NC(=O)[C@H](CCCCNC(=O)N2CCN(CC(=O)O)CC2)NC(=O)[C@H](CCC(=O)NCCOCCOCCOCCOC)NC(=O)[C@H]([C@@H](C)CC)NC1=O` [compound 118] ({CH2CO}-AV[NMePhe(3-Cl)]VWN[3Pal(6-NH2)]Y(Carboxymethyl)IIE(NH(CH2CH2O)4Me)K([CO-Piperazinyl(4-CH2COOH)])[4Pal][NMeY]C[PEG4]-NH2; thioether N-15) here?
A: 1 to 100 nM

Q: `CC[C@H](C)[C@@H]1NC(=O)[C@H](Cc2ccc(OCC(=O)O)cc2)NC(=O)[C@H](Cc2ccc(O)cc2)NC(=O)[C@H](CC(N)=O)NC(=O)[C@H](Cc2cn(CC(=O)O)c3ccccc23)NC(=O)[C@H](C(C)C)NC(=O)[C@H](Cc2cccc(Cl)c2)N(C)C(=O)[C@H](C(C)C)NC(=O)[C@H](C)NC(=O)CSC[C@@H](C(=O)NCCOCCOCCOCCOCCC(N)=O)NC(=O)[C@H](Cc2ccc(O)cc2)N(C)C(=O)[C@H](Cc2ccccc2)NC(=O)[C@H](CCCCN2CCOCC2)NC(=O)[C@H](CCC(=O)NCCOCCOCCOCCOC)NC(=O)[C@H]([C@@H](C)CC)NC1=O` [compound 119] ({CH2CO}-AV[NMePhe(3-Cl)]V[Trp(1-CH2COOH)]NYY(Carboxymethyl)IIE(NH(CH2CH2O)4Me)[Nle(6-morpholino)]F[NMeY]C[PEG4]-NH2; thioether N-15) was tested. Which Kd did it give?
A: < 1 nM

Q: For `CC[C@H](C)[C@@H]1NC(=O)[C@H](Cc2ccc(OCC(=O)O)cc2)NC(=O)[C@H](Cc2ccc(O)cc2)NC(=O)[C@H](CC(N)=O)NC(=O)[C@H](Cc2c[nH]c3ccccc23)NC(=O)[C@H](C(C)C)NC(=O)[C@H](Cc2cccc(Cl)c2)N(C)C(=O)[C@H](C(C)C)NC(=O)[C@H](C)NC(=O)CSC[C@@H](C(=O)NCCOCCOCCOCCOCCC(N)=O)NC(=O)[C@H](Cc2ccc(O)cc2)N(C)C(=O)[C@H](Cc2ccccc2)NC(=O)[C@H](CCCCN2CCOCC2)NC(=O)[C@H](CCC(=O)NCCOCCOCCOCCOC)NC(=O)[C@H]([C@@H](C)CC)NC1=O` [compound 120], which Kd is on record?
A: 1 to 100 nM

Q: `CC[C@H](C)[C@@H]1NC(=O)[C@H](Cc2ccc(OCC(=O)O)cc2)NC(=O)[C@H](Cc2ccc(O)cc2)NC(=O)[C@H](CC(N)=O)NC(=O)[C@H](Cc2c[nH]c3ccccc23)NC(=O)[C@H](C(C)C)NC(=O)[C@H](Cc2cccc(Cl)c2)N(C)C(=O)[C@H](C(C)C)NC(=O)[C@H](C)NC(=O)CSC[C@@H](C(=O)NCCOCCOCCOCCOCCC(N)=O)NC(=O)[C@H](Cc2ccc(O)cc2)N(C)C(=O)[C@H](Cc2ccccc2)NC(=O)[C@H](CCCCN)NC(=O)[C@H](CCC(=O)NCCOCCOCCOCCOC)NC(=O)[C@H]([C@@H](C)CC)NC1=O` [compound 121] ({CH2CO}-AV[NMePhe(3-Cl)]VWNYY(Carboxymethyl)IIE(NH(CH2CH2O)4Me)KF[NMeY]C[PEG4]-NH2; thioether N-15) was tested. Which Kd did it give?
A: 1 to 100 nM

Q: Which Kd does the source give for `CC[C@H](C)[C@@H]1NC(=O)[C@H](Cc2ccc(OCC(=O)O)cc2)NC(=O)[C@H](Cc2ccc(O)cc2)NC(=O)[C@H](CC(N)=O)NC(=O)[C@H](Cc2c[nH]c3ccccc23)NC(=O)[C@H](C(C)C)NC(=O)[C@H](Cc2cccc(Cl)c2)N(C)C(=O)[C@H](C(C)C)NC(=O)[C@H](C)NC(=O)CSC[C@@H](C(=O)NCCOCCOCCOCCOCCC(N)=O)NC(=O)[C@H](Cc2ccc(O)cc2)N(C)C(=O)[C@H](Cc2ccccc2)NC(=O)[C@H](CCCCN(C)C)NC(=O)[C@H](CCC(=O)NCCOCCOCCOCCOC)NC(=O)[C@H]([C@@H](C)CC)NC1=O` [compound 122] here?
A: 1 to 100 nM
